Five compounds from US20240228512A1, “ACYCLIC OXAZEPINE COMPOUNDS COMPRISING A 6-AZA MOIETY AND USES THEREOF” (Genentech, Inc., priority 2022, published 2024) can be followed below.

For one assay, the system named is SW480 cells. In words: SW480 CTG proliferation assay. Particulars: Homo sapiens. The class given is cell-based.
A further assay concerns SW620 PERK. Briefly: SW620 PERK assay. The class given is cell-based. The settings on record: Homo sapiens, SW-620, SW620, PERK.
The target of assay [1] is recombinant human KRAS wild type (SOS1-mediated nucleotide exchange) (Homo sapiens (Human), UniProt P01116). In words: KRAS biochemical assay, BODIPY-GDP exchange TR-FRET (WT-GDP HTRF). (In general: In TR-FRET formats the signal depends on donor and acceptor labels being close together.)
Sequence of recombinant human KRAS wild type (SOS1-mediated nucleotide exchange) (P01116-2 other isoform, or with tags, fused parts or gaps): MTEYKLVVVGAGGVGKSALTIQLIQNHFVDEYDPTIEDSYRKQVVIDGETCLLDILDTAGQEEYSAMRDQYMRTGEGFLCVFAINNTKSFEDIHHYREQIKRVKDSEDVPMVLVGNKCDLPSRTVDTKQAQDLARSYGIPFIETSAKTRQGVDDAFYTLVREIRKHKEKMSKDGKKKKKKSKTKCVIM
A further assay concerns H1975 cells. In words: H1975 CTG proliferation assay. The class given is cell-based. The settings on record: Homo sapiens, NCI-H1975, H1975, CTG.
For a further assay, the system named is SW620 cells. In words: SW620 3D proliferation assay (CellTiter-Glo). The class given is cell-based. Particulars: Homo sapiens, SW-620, 168 h, SW620, 3D culture, 7 days, read-out: SW620 CTG IC50. The method in brief:
(§1)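 IC50 values were fitted with a 4-parameter logistic to luminescent ATP signal (CellTiter-Glo 3D) after 7-day compound exposure. Seeding was 3000 (96-well) or 1000 (384-well) cells/well in low-attachment plates with RPMI-1640, 10% FBS, 2 mM L-glutamine.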

Assay [2] addresses recombinant human mutant KRas G12V (SOS1-mediated nucleotide exchange) (Homo sapiens (Human), UniProt P01116, G12V). In words: KRAS biochemical assay, BODIPY-GDP exchange TR-FRET (G12V-GDP HTRF).
The test system of another assay is HPAC cells. In words: HPAC 3D proliferation assay (CellTiter-Glo). The class given is cell-based. Particulars: Homo sapiens, 168 h, 3D culture, 7 days, read-out: HPAC CTG IC50. The gist of the method: as §1
For orientation: Cellular ATP, detected with luciferase, serves as a proxy for viable cell number.

The structures appear in SMILES notation. pIC50: −log10 of the molar value.

Sequence of recombinant human mutant KRas G12V (SOS1-mediated nucleotide exchange) (P01116-2 other isoform, or with tags, fused parts or gaps G12V): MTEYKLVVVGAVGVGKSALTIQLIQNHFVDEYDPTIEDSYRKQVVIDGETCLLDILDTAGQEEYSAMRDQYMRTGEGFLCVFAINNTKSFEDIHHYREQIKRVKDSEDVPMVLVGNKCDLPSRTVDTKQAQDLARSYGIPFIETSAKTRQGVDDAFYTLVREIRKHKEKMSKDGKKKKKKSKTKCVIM

Broadly, the pIC50 is the IC50 on a negative log10 scale, so that one unit is a factor of ten. As for `Cc1cc(N)nc(-c2nc3c4c(nc(OC[C@@]56CCCN5C[C@]5(CC5(F)F)C6)nc4c2F)N([C@H](C)c2cccnc2N)CCO3)c1C(F)(F)F` [Example 635], the pIC50 in the assay with SW480 cells was less than 6.70; in the assay with SW620 PERK, 8.67; in assay [1], 9.49; in the assay on H1975 cells, 8.60; with SW620 cells it was 8.45; in assay [2] it was 9.68. Also, the negative-log IC50 (pIC50) in the assay on HPAC cells is 7.93.
As for `C#Cc1cccc2cc(O)cc(-c3nc4c5c(nc(OC[C@@]67CCCN6C[C@H](F)C7)nc5c3F)N([C@H](C)c3cccnc3N)CCO4)c12` [Example 7, 4-(10-((R)-1-(2-aminopyridin-3-yl)ethyl)-4-fluoro-2-(((2R,7aS)-2-fluorotetrahydro-1H-pyrrolizin-7a(5H)-yl)methoxy)-9,10-dihydro-8H-7-oxa-1,3,6,10-tetraazacyclohepta[de]naphthalen-5-yl)-5-ethynyinaphthalen-2-ol], the pIC50 with SW480 cells is 7.92; in the assay on SW620 PERK, 8.95; in assay [1], 9.92; with H1975 cells, 8.59; in the assay on SW620 cells it was 8.71; in assay [2], 10.40. For the same compound, the pIC50 with HPAC cells was 7.71.
For `Cc1cc(N)c(F)c(-c2nc3c4c(nc(OC[C@@]56CCCN5C[C@]5(CC5(F)F)C6)nc4c2F)N([C@H](C)c2nccnc2N)CCO3)c1C(F)(F)F` [Example 609], the pIC50 in the assay on SW480 cells was 7.24; in the assay on SW620 PERK, 8.25; in assay [1], 9.38; with H1975 cells it was 4.84; in the assay with SW620 cells, 8.24; in assay [2], 9.68. Further, the pIC50 in the assay with HPAC cells is 7.47.
As for `Cc1c(F)c(N)cc(-c2nc3c4c(nc(OC[C@@]56CCCN5C[C@]5(CC5(F)F)C6)nc4c2F)N([C@H](C)c2cncnc2N)CCO3)c1C(F)(F)F` [Example 616], the pIC50 with SW480 cells was less than 6.70; in the assay on SW620 PERK, 8.33; in assay [1], 9.71; in the assay with H1975 cells it was 8.59; in the assay on SW620 cells it was 8.07; in assay [2], 10.05. For the same compound, in the assay on HPAC cells, the pIC50 is 7.30.
Take `Cc1c(F)c(N)cc(-c2nc3c4c(nc(OC[C@@]56CCCN5C[C@H](F)C6)nc4c2F)N([C@H](C)c2cccnc2N)CCO3)c1C(F)(F)F` [Example 5, 3-((R)-1-(5-(5-amino-4-fluoro-3-methyl-2-(trifluoromethyl)phenyl)-4-fluoro-2-(((2R,7aS)-2-fluorotetrahydro-1H-pyrrolizin-7a(5H)-yl)methoxy)-8,9-dihydro-10H-7-oxa-1,3,6,10-tetraazacyclohepta[de]naphthalen-10-yl)ethyl)pyridin-2-amine]: the pIC50 is 8.24 in the assay with SW480 cells; 9.14 in the assay with SW620 PERK; 10.28 in assay [1]; 7.89 in the assay with H1975 cells; 8.94 with SW620 cells; 10.35 in assay [2]. The negative logarithm of the IC50 (pIC50) with HPAC cells was 8.30.
